# Test results: US9151761B2, “Predictive biomarker of survival in the treatment of renal cell carcinoma” (Amgen Inc., priority 2011, dated 2015)
# Test system: advanced clear cell carcinoma of the kidney
# Assay: Phase 2 study of AMG 386 plus sorafenib: progression free survival by baseline serum PLGF above vs below the median (28 pg/mL)
# Assay type: in vivo, human
# Conditions: sorafenib only, 400 mg PO BID (placebo AMG 386), FIG. 4
# Protocol: FIGS. 1-4 are Kaplan-Meier plots showing progression free survival differences between subjects with patient PLGF concentrations above and below the median PLGF concentration parameter (28 pg/mL). 123 patients total with 43 patients administered AMG 386 at 10 mg/kg, 39 patients at 3 mg/kg, and 41 patients at 0 mg/kg. All patients were also dosed with 400 mg sorafenib orally, twice a day. […]
# The number of patients to be enrolled was approximately 150. […] The primary outcome measured was PFS while the secondary outcome included objective response rate, duration of response, and change in continuous measures of tumor burden.
# Renal cancer patient's circulating levels of protein placental growth factor (PLGF) was analyzed along with a number of other analytes to determine if it was predictive of how well they will respond after treatment with AMG 386 and sorafenib. […] The baseline patient PLGF concentration was analyzed to determine if it was informative of how well the patient would respond to the treatment regimens.
# The patients PLGF concentrations were determined and tested for statistical association with progression free survival (PFS) time. […] Predictive significance was determined with a Cox proportional hazards model of PFS with the factors PLGF, cohort, and the interaction between PLGF and cohort. […]
structure (smiles),measurement,setting,value
CNC(=O)c1cc(Oc2ccc(NC(=O)Nc3ccc(Cl)c(C(F)(F)F)c3)cc2)ccn1 [sorafenib],"Cox proportional hazard ratio (HR) of progression free survival, patient PLGF above vs below median","41 patients (23 above, 18 below)",0.83
same,"difference in median survival, patient PLGF above vs below median",41 patients,1 days
